Results published in ChEMBL document CHEMBL3885861, “Open TG-GATES”.

Organism: Rattus norvegicus
Assay: Open TG-GATES - Regimen: Daily Repeat
Type: toxicity, organism-based, Sprague-Dawley
Design: regimen Daily Repeat, gender Male, age 6 weeks
Settings: in vivo, po, 150 mg/kg, route gavage, dose level Middle; for APTT / Bas / Eos / Fbg / Hb / Ht / Lym / MCH / MCHC / MCV / Mono / Neu / PT / Plat / RBC / Ret / WBC: tissue Blood; for KIDNEY_L / KIDNEY_R / KIDNEY_TOTAL: tissue Kidney; for LIVER: tissue Liver; for A/G / ALP / ALT / AST / BUN / CRE / Ca / Cl / DBIL / GLC / IP / K / LDH / Na / PL / RALB / TBIL / TC / TG / TP / gamma-GTP: tissue Plasma

CC(=O)Oc1cc(C(C)C)c(OCCN(C)C)cc1C [MOXISYLYTE]
TERMINAL_BW (72 h, time 3 day): 223.4 g
APTT (72 h, time 3 day): 20.6 s
Bas (72 h, time 3 day): 0%
Eos (72 h, time 3 day): 1%
Fbg (72 h, time 3 day): 313 mg/dL
Hb (72 h, time 3 day): 14.1 g/dL
Ht (72 h, time 3 day): 40.5%
Lym (72 h, time 3 day): 78%
MCH (72 h, time 3 day): 21.3 pg
MCHC (72 h, time 3 day): 34.8%
MCV (72 h, time 3 day): 61.2 fL
Mono (72 h, time 3 day): 2.4%
Neu (72 h, time 3 day): 17.6%
PT (72 h, time 3 day): 16.2 s
Plat (72 h, time 3 day): 113.1 x10_4/uL
RBC (72 h, time 3 day): 663.6 x10_4/ul
Ret (72 h, time 3 day): 6.3%
WBC (72 h, time 3 day): 91.7 x10_2/uL
KIDNEY_L (72 h, time 3 day): 1 g
KIDNEY_R (72 h, time 3 day): 1 g
KIDNEY_TOTAL (72 h, time 3 day): 2 g
LIVER (72 h, time 3 day): 9.7 g
A/G (72 h, time 3 day): 1.3
ALP (72 h, time 3 day): 1491.8 IU/L
ALT (72 h, time 3 day): 42.6 IU/L
AST (72 h, time 3 day): 75.6 IU/L
BUN (72 h, time 3 day): 16.4 mg/dL
CRE (72 h, time 3 day): 0.1 mg/dL
Ca (72 h, time 3 day): 10.8 mg/dL
Cl (72 h, time 3 day): 106.6 meq/L
DBIL (72 h, time 3 day): 0.01 mg/dL
GLC (72 h, time 3 day): 176.8 mg/dL
IP (72 h, time 3 day): 7.4 mg/dL
K (72 h, time 3 day): 4.2 meq/L
LDH (72 h, time 3 day): 242.8 IU/L
Na (72 h, time 3 day): 142.6 meq/L
PL (72 h, time 3 day): 159.8 mg/dL
RALB (72 h, time 3 day): 3.3 g/dL
TBIL (72 h, time 3 day): 0.008 mg/dL
TC (72 h, time 3 day): 74.4 mg/dL
TG (72 h, time 3 day): 140.6 mg/dL
TP (72 h, time 3 day): 5.8 g/dL
gamma-GTP (72 h, time 3 day): 1 IU/L
TERMINAL_BW ([…], time 7 day): 265.4 g
TERMINAL_BW ([…], time 14 day): 312.1 g
TERMINAL_BW ([…], time 28 day): 361.5 g
APTT ([…], time 7 day): 22.3 s
Bas ([…], time 7 day): 0%
Eos ([…], time 7 day): 0.6%
Fbg ([…], time 7 day): 318.2 mg/dL
Hb ([…], time 7 day): 13.4 g/dL
Ht ([…], time 7 day): 38.8%
Lym ([…], time 7 day): 81.4%
MCH ([…], time 7 day): 21.1 pg
MCHC ([…], time 7 day): 34.6%
MCV ([…], time 7 day): 61.2 fL
Mono ([…], time 7 day): 2.2%
Neu ([…], time 7 day): 15.2%
PT ([…], time 7 day): 15.3 s
Plat ([…], time 7 day): 113.7 x10_4/uL
RBC ([…], time 7 day): 633.2 x10_4/ul
Ret ([…], time 7 day): 6.1%
WBC ([…], time 7 day): 110.8 x10_2/uL
APTT ([…], time 14 day): 21.8 s
Bas ([…], time 14 day): 0%
Eos ([…], time 14 day): 1.2%
Fbg ([…], time 14 day): 310.8 mg/dL
Hb ([…], time 14 day): 14.5 g/dL
Ht ([…], time 14 day): 40%
Lym ([…], time 14 day): 76.4%
MCH ([…], time 14 day): 20.9 pg
MCHC ([…], time 14 day): 36.3%
MCV ([…], time 14 day): 57.8 fL
Mono ([…], time 14 day): 2.6%
Neu ([…], time 14 day): 19%
PT ([…], time 14 day): 15.9 s
Plat ([…], time 14 day): 117.3 x10_4/uL
RBC ([…], time 14 day): 692.8 x10_4/ul
Ret ([…], time 14 day): 4.9%
WBC ([…], time 14 day): 125.2 x10_2/uL
APTT ([…], time 28 day): 22.5 s
Bas ([…], time 28 day): 0%
Eos ([…], time 28 day): 1%
Fbg ([…], time 28 day): 323.6 mg/dL
Hb ([…], time 28 day): 15.1 g/dL
Ht ([…], time 28 day): 42.5%
Lym ([…], time 28 day): 81.6%
MCH ([…], time 28 day): 19 pg
MCHC ([…], time 28 day): 35.4%
MCV ([…], time 28 day): 53.5 fL
Mono ([…], time 28 day): 2.4%
Neu ([…], time 28 day): 14.2%
PT ([…], time 28 day): 15.6 s
Plat ([…], time 28 day): 92.2 x10_4/uL
RBC ([…], time 28 day): 793.6 x10_4/ul
Ret ([…], time 28 day): 2.7%
WBC ([…], time 28 day): 166.9 x10_2/uL
KIDNEY_L ([…], time 7 day): 1.1 g
KIDNEY_R ([…], time 7 day): 1.2 g
KIDNEY_TOTAL ([…], time 7 day): 2.3 g
KIDNEY_L ([…], time 14 day): 1.2 g
KIDNEY_R ([…], time 14 day): 1.3 g
KIDNEY_TOTAL ([…], time 14 day): 2.6 g
KIDNEY_L ([…], time 28 day): 1.4 g
KIDNEY_R ([…], time 28 day): 1.4 g
KIDNEY_TOTAL ([…], time 28 day): 2.8 g
LIVER ([…], time 7 day): 12.3 g
LIVER ([…], time 14 day): 13.7 g
LIVER ([…], time 28 day): 14.2 g
A/G ([…], time 7 day): 1.3
ALP ([…], time 7 day): 1576.8 IU/L
ALT ([…], time 7 day): 43.4 IU/L
AST ([…], time 7 day): 77.8 IU/L
BUN ([…], time 7 day): 17.2 mg/dL
CRE ([…], time 7 day): 0.2 mg/dL
Ca ([…], time 7 day): 10.6 mg/dL
Cl ([…], time 7 day): 106 meq/L
DBIL ([…], time 7 day): 0 mg/dL
GLC ([…], time 7 day): 192.2 mg/dL
IP ([…], time 7 day): 7.2 mg/dL
K ([…], time 7 day): 4.3 meq/L
LDH ([…], time 7 day): 192.2 IU/L
Na ([…], time 7 day): 141.4 meq/L
PL ([…], time 7 day): 155.4 mg/dL
RALB ([…], time 7 day): 3.1 g/dL
TBIL ([…], time 7 day): 0.006 mg/dL
TC ([…], time 7 day): 75.6 mg/dL
TG ([…], time 7 day): 147.6 mg/dL
TP ([…], time 7 day): 5.5 g/dL
gamma-GTP ([…], time 7 day): 1.4 IU/L
A/G ([…], time 14 day): 1.2
ALP ([…], time 14 day): 1330.2 IU/L
ALT ([…], time 14 day): 44.6 IU/L
AST ([…], time 14 day): 79.2 IU/L
BUN ([…], time 14 day): 18.8 mg/dL
CRE ([…], time 14 day): 0.2 mg/dL
Ca ([…], time 14 day): 10.6 mg/dL
Cl ([…], time 14 day): 107.4 meq/L
DBIL ([…], time 14 day): 0 mg/dL
GLC ([…], time 14 day): 173.2 mg/dL
IP ([…], time 14 day): 6 mg/dL
K ([…], time 14 day): 4.2 meq/L
LDH ([…], time 14 day): 181.2 IU/L
Na ([…], time 14 day): 141 meq/L
PL ([…], time 14 day): 146.2 mg/dL
RALB ([…], time 14 day): 3.1 g/dL
TBIL ([…], time 14 day): 0 mg/dL
TC ([…], time 14 day): 76.2 mg/dL
TG ([…], time 14 day): 151.4 mg/dL
TP ([…], time 14 day): 5.7 g/dL
gamma-GTP ([…], time 14 day): 1 IU/L
A/G ([…], time 28 day): 1
ALP ([…], time 28 day): 1105.4 IU/L
ALT ([…], time 28 day): 41 IU/L
AST ([…], time 28 day): 70.4 IU/L
BUN ([…], time 28 day): 17.4 mg/dL
CRE ([…], time 28 day): 0.2 mg/dL
Ca ([…], time 28 day): 10.4 mg/dL
Cl ([…], time 28 day): 107 meq/L
DBIL ([…], time 28 day): 0.002 mg/dL
GLC ([…], time 28 day): 188.2 mg/dL
IP ([…], time 28 day): 6.1 mg/dL
K ([…], time 28 day): 4.1 meq/L
LDH ([…], time 28 day): 137 IU/L
Na ([…], time 28 day): 141.8 meq/L
PL ([…], time 28 day): 143 mg/dL
RALB ([…], time 28 day): 3.1 g/dL
TBIL ([…], time 28 day): 0.006 mg/dL
TC ([…], time 28 day): 71.4 mg/dL
TG ([…], time 28 day): 150.4 mg/dL
TP ([…], time 28 day): 6 g/dL
gamma-GTP ([…], time 28 day): 2.2 IU/L
